Patent publication US20200206291A1, “COMPOSITION FOR PREVENTING OR TREATING OBESITY, COMPRISING SUPPLEMENT FOR REDUCING BODY FAT AND B-GLUCAN AS ACTIVE INGREDIENTS” (QUEGEN BIOTECH CO., LTD., priority 2017, published 2020)

Tests used:
Type in all cases: in vivo, C57BL/6 mice
[1] = Serum analysis of mice sacrificed after 20 weeks (Example 2, FIG. 7); conditions: compared to Comparative Experimental Group 2-3 (PBS)
Procedure: Six-week-old wild-type C57BL/6 mice, to be subjected to body fat monitoring, were purchased, acclimated for 3 days and then raised. HCA (Sigma-Aldrich), Schizophyllum commune-derived β-glucan (SPG with the structure of β-(1.6)-branched (1,3)-glucan; Quegen Biotech Co., Ltd.) and a phosphate buffer solution (PBS) were orally administered as test drugs in combination or independently once every day. Specifically, 0.2 mL of HCA (concentration=10 mg/mL), and after 30 minutes, 0.2 mL of Schizophyllum commune-derived β-glucan (SPG with the structure of β-(1,6)-branched (1,3)-glucan; concentration=0.4 mg/mL) were orally administered to Experimental Group 2-1. In addition, 0.2 mL of HCA (concentration=10 mg/mL), and after 30 minutes, 0.2 mL of Schizophyllum commune-derived β-glucan (SPG with the structure of β-(1,6)-branched (1,3)-glucan; concentration=2 mg/mL) were orally administered to Experimental Group 2-2. Meanwhile, 0.2 mL of HCA (concentration=10 mg/mL) was orally administered to Comparative Experimental Group 2-1. In addition, 0.2 mL of Schizophyllum commune-derived β-glucan (SPG with the structure of 3-(1.6)-branched (1,3)-glucan:concentration=2 mg/mL) was orally administered to Comparative Experimental Group 2-2, and 0.2 mL of PBS was orally administered to Comparative Experimental Group 2-3. In addition, in Experimental Groups 2-1 and 2-2 and Comparative Experimental Groups 2-1 to 2-3, the mice were sacrificed after 20 weeks of administering the test drugs, and then subjected to serum analysis, and the result is shown in FIG. 7.

[2] = Summary of the animal tests: supplement for reducing body fat and β-glucan, alone or co-administered; conditions: administered alone
Procedure: (§1) Six-week-old wild-type C57BL/6 mice, to be subjected to body fat monitoring, were purchased, acclimated for 3 days and then raised. Schizophyllum commune-derived β-glucan (SPG with the structure of β-(1,6)-branched (1,3)-glucan; Quegen Biotech Co., Ltd.) and a phosphate buffer solution (PBS) were orally administered as test drugs in combination or independently once every day. Specifically, 0.2 mL of CLA (concentration=10 mg/mL), and after 30 minutes, 0.2 mL of Schizophyllum commnune-derived β-glucan (SPG with the structure of β-(1,6)-branched (1,3)-glucan; concentration=0.4 mg/mL) were orally administered to Experimental Group 1-1. In addition, 0.2 mL of CLA (concentration=10 mg/mL), and after 30 minutes, 0.2 mL of Schizophyllum commune-derived β-glucan (SPG with the structure of β-(1,6)-branched (1,3)-glucan; concentration=2 mg/mL) were orally administered to Experimental Group 1-2. Meanwhile, 0.2 mL of CLA (concentration=10 mg/mL) was orally administered to Comparative Experimental Group 1-1. In addition, 0.2 mL of Schizophyllum commune-derived β-glucan (SPG with the structure of β-(1,6)-branched (1,3)-glucan; concentration=2 mg/mL) was orally administered to Comparative Experimental Group 1-2, and 0.2 mL of PBS was orally administered to Comparative Experimental Group 1-3.
(§2) Six-week-old wild-type C57BL/6 mice, to be subjected to body fat monitoring, were purchased, acclimated for 3 days and then raised. HCA (Sigma-Aldrich), Schizophyllum commune-derived β-glucan (SPG with the structure of β-(1.6)-branched (1,3)-glucan; Quegen Biotech Co., Ltd.) and a phosphate buffer solution (PBS) were orally administered as test drugs in combination or independently once every day. Specifically, 0.2 mL of HCA (concentration=10 mg/mL), and after 30 minutes, 0.2 mL of Schizophyllum commune-derived β-glucan (SPG with the structure of β-(1,6)-branched (1,3)-glucan; concentration=0.4 mg/mL) were orally administered to Experimental Group 2-1. In addition, 0.2 mL of HCA (concentration=10 mg/mL), and after 30 minutes, 0.2 mL of Schizophyllum commune-derived β-glucan (SPG with the structure of β-(1,6)-branched (1,3)-glucan; concentration=2 mg/mL) were orally administered to Experimental Group 2-2. Meanwhile, 0.2 mL of HCA (concentration=10 mg/mL) was orally administered to Comparative Experimental Group 2-1. In addition, 0.2 mL of Schizophyllum commune-derived β-glucan (SPG with the structure of 3-(1.6)-branched (1,3)-glucan:concentration=2 mg/mL) was orally administered to Comparative Experimental Group 2-2, and 0.2 mL of PBS was orally administered to Comparative Experimental Group 2-3.

[3] = Body weight of mice measured every week for 20 weeks, HCA with or without SPG (Example 2, FIG. 5); conditions: oral, weekly over 20 weeks; compared to Comparative Experimental Group 2-3 (PBS)
Procedure: as §2, with “In addition, 0.2 mL of Schizophyllum commune-derived β-glucan (SPG with the structure of 3-(1.6)-branched (1,3)-glucan:concentration=2 mg/mL) was orally administered to Comparative Experimental Group 2-2, and 0.2 mL of PBS was orally administered to Comparative Experimental Group 2-3.” left out
Specifically, in Experimental Groups 2-1 and 2-2 and Comparative Experimental Groups 2-1 to 2-3, the body weights of the mice were measured every week for 20 weeks after the start of administration of the test drugs, and the result is shown in FIG. 5.

[4] = Body weights and tissue weights of mice sacrificed after 20 weeks (Example 2, FIG. 6); conditions: compared to Comparative Experimental Group 2-3 (PBS)
Procedure: as §2
In addition, in Experimental Groups 2-1 and 2-2 and Comparative Experimental Groups 2-1 to 2-3, the mice were sacrificed after 20 weeks of administering the test drugs, and then body weights and tissue weights thereof measured, and the result is shown in FIG. 6.

[5] = Body weights and tissue weights of mice sacrificed after 28 weeks (Example 1, FIG. 3); conditions: compared to Comparative Experimental Group 1-3 (PBS)
Procedure: as §1
In addition, in Experimental Groups 1-1 and 1-2 and Comparative Experimental Groups 1-1 to 1-3, the mice were sacrificed after 28 weeks of administering the test drugs, and then body weights and tissue weights thereof measured, and the result is shown in FIG. 3.

[6] = Body weight of mice measured every week for 28 weeks, CLA with or without SPG (Example 1, FIG. 2); conditions: oral, weekly over 28 weeks; compared to Comparative Experimental Group 1-3 (PBS)
Procedure: as §1, with “In addition, 0.2 mL of Schizophyllum commune-derived β-glucan (SPG with the structure of β-(1,6)-branched (1,3)-glucan; concentration=2 mg/mL) was orally administered to Comparative Experimental Group 1-2, and 0.2 mL of PBS was orally administered to Comparative Experimental Group 1-3.” left out
Specifically, in Experimental Groups 1-1 and 1-2 and Comparative Experimental Groups 1-1 to 1-3, the body weights of the mice were measured every week for 28 weeks after the start of administration of the test drugs, and the result is shown in FIG. 2.

[7] = Serum analysis of mice sacrificed after 28 weeks (Example 1, FIG. 4); conditions: compared to Comparative Experimental Group 1-3 (PBS)
Procedure: as §1
In addition, in Experimental Groups 1-1 and 1-2 and Comparative Experimental Groups 1-1 to 1-3, the mice were sacrificed after 28 weeks of administering the test drugs, and then subjected to serum analysis, and the result is shown in FIG. 4.

In the case of `O=C(O)CC(O)(C(=O)O)C(O)C(=O)O` (stereo not drawn) [Comparative Experimental Group 2-1, hydroxycitric acid], the “free fatty acid content (serum)” value [1] is reported as “decreased by more than half”, the “liver damage (serum analysis)” value [1] is reported as “had liver damage” and the “total cholesterol content in blood” value [1] is reported as “increased in total cholesterol content in blood”. For the same compound, the “triglyceride content (serum)” value [1] was “decreased by more than half”, the “side effects (hepatotoxicity, increase in blood cholesterol level)” value [2] was “side effects caused by hepatotoxicity and an increase in blood cholesterol level are problematic” and the weight loss effect [2] was “a weight loss effect caused by reduced body fat is exhibited”. The “body weight as the period of administering the test drugs progressed” value (from here on “body weight as the period”) [3] was “greatly decreased in body weight”, the “body weight at sacrifice” value [4] was “greatly decreased” and the “tissue weight of each organ” value [4] was “greatly decreased”. For the same compound, the “tissue weight of the liver” value [4] was “rather increased in tissue weight of the liver”.
In the case of “conjugated linoleic acid [Comparative Experimental Group 1-1]”, the “body weight at sacrifice” value [5] is reported as “greatly decreased”, the “tissue weight of each organ” value [5] is reported as “greatly decreased” and the “tissue weight of the liver” value [5] is reported as “rather increased in tissue weight of the liver”. The “body weight as the period” value [6] was “greatly decreased in body weight”, the “free fatty acid content (serum)” value [7] was “decreased by more than half” and the “liver damage (serum analysis)” value [7] was “had liver damage”. The “total cholesterol content in blood” value [7] was “increased in total cholesterol content in blood”, the “triglyceride content (serum)” value [7] was “decreased by more than half” and the “side effects (hepatotoxicity, increase in blood cholesterol level)” value [2] was “side effects caused by hepatotoxicity and an increase in blood cholesterol level are problematic”. The weight loss effect [2] was “a weight loss effect caused by reduced body fat is exhibited”.
For “β-(1,6)-branched (1,3)-glucan [Comparative Experimental Group 1-2]”, the “body weight at sacrifice” value [5] was “almost no change”, the “tissue weight of each organ” value [5] was “almost no change” and the “body weight as the period” value [6] was “no change in body weight”. For the same compound, the weight loss effect [2] was “does not exhibit a significant weight loss effect”, the “body weight as the period” value [3] was “no change in body weight” and the “body weight at sacrifice” value [4] was “almost no change”. For the same compound, the “tissue weight of each organ” value [4] was “almost no change”.
